The source of these data is patent US20120232142A1, “NOVEL USE OF DIMETHYLFUMARATE” (KYUNGPOOK NATIONAL UNIVERSITY INDUSTRY ACADEMIC COOPERATION …, priority 2007, published 2012).

SMILES strings stand for the structures. Structures can show the parent of a compound that is named as a salt.

Assay [1] relates to vascular smooth muscle cells. Description: Inhibition of PDGF-induced vascular smooth muscle cell proliferation (WST cell counting). It counts as cell-based, Sprague-Dawley rat. The note with it: 1, 2, 5, 10 μM; PDGF 20 ng/ml; 48 hours; OD 450 nm. As to the method:
For culturing vascular smooth muscle cells, vascular smooth muscle cells were isolated from the aorta of Sprague-Dawley rat and were first cultured. Vascular smooth muscle cells were cultured in a culturing apparatus having conditions of 37° C., 5% carbon dioxide until cells are grown up in culture medium containing 20% bovine fetal serum. Cells obtained from the procedure were transferred to a fresh culture dish to culture, and the initial cells subcultured up to 4 to 7 times were used in experiments. First cultured vascular smooth muscle cells were cultured in 96-well culture dish, and when growth reached 70%, they were transferred to a medium containing 0.5% bovine fetal serum, and then cultured for 24 hours and the cells was stood at interphase status. […] The number of viable cells was measured employing WST cell counting kit (WAKO, Japan). A reagent for confirming cell proliferation was treated thereto, reaction was further performed for 4 hours, and then optical density was measured at 450 nm with ELISA reader to investigate the ability of proliferating cells. The results of the experiments were shown by taking an average from values measured in more than three separate experiments.

For a further assay, the system named is neointima. Description: Neointima formation after balloon dilation in rats fed high fat diet (H & E staining). The format is in vivo, Sprague-Dawley rats. The note with it: 4 weeks. How it is done:
In order to confirm whether dimethyl fumarate inhibits the formation of neointima after balloon dilation, experiments were performed with Sprague-Dawley rats fed with food containing dimethyl fumarate. The rats were bred while maintaining conditions that the temperature of the breeding room was maintained at 22±2° C., and brightness was automatically controlled in 12 hour cycles. Rats were categorized into a normal control group, a negative control group fed with only high fat diet (20% fat, 0.05% cholesterol), and an experiment group fed with food containing 0.5% or 1% dimethyl fumarate together with high fat diet (4 rats per each group), and experiments were progressed while breeding for 4 weeks in separate cages containing one rat per cage. Balloon dilation was performed after breeding rats for 2 weeks before the balloon dilation, and breeding was performed for 2 weeks more while continuing on feeding general diet and dimethyl fumarate diet, and then their aorta were separated and the formation of neointima was confirmed with H & E (hematoxylin and eosin) staining method.

A further assay relates to pRb and CDK. The experiment in a line: Western blot of Rb phosphorylation and CDK expression in vascular smooth muscle cells with PDGF. The format is cell-based, Sprague-Dawley rat. As to the method: (§1) For culturing vascular smooth muscle cells, vascular smooth muscle cells were isolated from the aorta of Sprague-Dawley rat and were first cultured. Vascular smooth muscle cells were cultured in a culturing apparatus having conditions of 37° C., 5% carbon dioxide until cells are grown up in culture medium containing 20% bovine fetal serum. Cells obtained from the procedure were transferred to a fresh culture dish to culture, and the initial cells subcultured up to 4 to 7 times were used in experiments.
First cultured vascular smooth muscle cells were filled in about 80 to 90% of 60 mm tissue culture dish, and the cells were stood in a medium containing 0.5% FBS for 24 hours to render the cells to be interphase status. The group not treated with dimethyl fumarate was defined as a control, and experimental groups were divided into 3 groups treated with 5 μM dimethyl fumarate for 6, 12 and 24 hours, respectively, with or without PDGF. […] Separated proteins of each sample were quantitatively analyzed, 25 μg of proteins were mixed with sample buffer solution, the mixture was boiled for 5 minutes and then cooled, electrophoresis was performed for the resulting product in sodium dodecyl sulfate polyacrylamide gel to separate depending on size, then the product was transferred to a PVDF membrane, and then reacted with an antibody against pRb or Cyclin. […]
A general note: A western blot detects proteins with antibodies after separation by electrophoresis.

Assay [2] has as its system vascular smooth muscle cells. The experiment in a line: Cell cycle analysis by FACS (PI staining) of vascular smooth muscle cells. The format is cell-based, Sprague-Dawley rat. The note with it: 5 μM pretreated 2 hours; growth factor and insulin 24 hours; stimulated without drug 8.7%. As to the method:
For culturing vascular smooth muscle cells, vascular smooth muscle cells were isolated from the aorta of Sprague-Dawley rat and were first cultured. Vascular smooth muscle cells were cultured in a culturing apparatus having conditions of 37° C., 5% carbon dioxide until cells are grown up in culture medium containing 20% bovine fetal serum. Cells obtained from the procedure were transferred to a fresh culture dish to culture, and the initial cells subcultured up to 4 to 7 times were used in experiments. Vascular smooth muscle cells were analyzed for cell cycle employing FACS in order to confirm the effect of dimethyl fumarate on cell cycle. 5 μM dimethyl fumarate were pretreated for 2 hours in the vascular smooth muscle cells cultured in a medium containing 0.5% bovine fetal serum for 24 hours. Cells were treated with a growth factor and insulin to induce cells into replication phase, and reaction was performed for 24 hours. Then cells were collected and immobilized, and then their nucleuses were stained with propidium iodide (PI), and cell cycle was analyzed by employing FACS. Cell cycle was indicated as % by measuring 10,000 cells per each sample.
On the technique in general: In flow cytometry, cells or beads pass a laser one at a time.

The subject of the next assay is AMPK. Description: Western blot of AMPK and ACC phosphorylation in vascular smooth muscle cells. The note with it: 5 μM; 1, 2, 3, 6, 12 hours. It counts as cell-based, Sprague-Dawley rat. As to the method: as §1
(§2) First cultured vascular smooth muscle cells were filled in about 80 to 90% of 60 mm tissue culture dish, and the cells were stood in a medium containing 0.5% FBS for 24 hours to render the cells to be interphase status. […]
(§3) Whole proteins were separated from vascular smooth muscle cells of each group by employing RIPA buffer solution (50 mM Tris-HCl, 150 mM NaCl, 5 mM EDTA, 1% NP-40, 1 mM PMSF, 1 mM DTT, 1 mg/ml protease inhibitor). Separated proteins of each sample were quantitatively analyzed, 25 mg of proteins were mixed with sample buffer solution, the mixture was boiled for 5 minutes and then cooled, electrophoresis was performed for the resulting product in sodium dodecyl sulfate polyacrylamide gel to separate depending on size, then the product was transferred to a PVDF membrane, and then reacted with pAMPK or pACC antibody to confirm phosphorylation thereof. […]

The test system of another assay is p53 and p21. Description: Western blot of p53 and p21 expression in vascular smooth muscle cells. It counts as cell-based, Sprague-Dawley rat. The note with it: 5 μM; 1, 2, 3, 6, 12 hours. How it is done: as §1, §2
as §3, with “mM Tris HCl,” for “mM Tris-HCl,”, “25 μg” for “25 mg”, “with p53” for “with pAMPK”, “or p21” for “or pACC”, “confirm the expression” for “confirm phosphorylation”

For `COC(=O)/C=C/C(=O)OC` [dimethyl fumarate], the “cell proliferation increased by platelet derived growth factor” value in assay [1] is given as “inhibited as the concentration of dimethyl fumarate was increased”. Besides, the “formation of neointima after balloon dilation” value with neointima (food containing 0.5% dimethyl fumarate with high fat diet) is “certainly decreased”. Moreover, the “formation of neointima after balloon dilation” value in the assay on neointima (food containing 1% dimethyl fumarate with high fat diet) is “certainly decreased”. Also, in the assay with pRb and CDK (5 μM pretreated 2 hours, then PDGF), the “expression of CDK” value was “more inhibited”. For the same compound, in the assay with pRb and CDK (5 μM, 6, 12 and 24 hours, with or without PDGF), the “phosphorylation of Rb promoted by a growth factor or CDK” value was “inhibits”. Moreover, in assay [2], the “cells in replication phase status” value was 3.4%. In the assay with AMPK, the “activity (phosphorylation) of AMPK” value was “initially increased” and the “phosphorylation of ACC” value is given as “continuously increased”. In the assay on p53 and p21, the “expression of p21” value is on record as “increased” and the “expression of p53” value was “increased”.
